Test results: ChEMBL document CHEMBL1201862, “PubChem BioAssay data set” (2004)
Active and inactive are the calls of the source.

How the values were obtained:
Protein Wnt-3a = Protein Wnt-3a (Mus musculus, UniProt P27467); assay: antagonism of Wnt3a pathway luciferase reporter – Wnt-LIGHT cells, luminescence, selectivity assay for Gli-SUFU antagonist project, dose response (AID 651570); format: functional; settings: read-out: IC50_Mean;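 also: Wnt-LIGHT reporter cells stimulated with conditioned medium from Wnt3a-producing cells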
[1] = molecular target: T1, High affinity choline transporter 1 (Homo sapiens, UniProt Q9GZV3); assay: human choline transporter blockers, potency – cell-based, 5-point CRC, membrane potential dye, dose response (AID 504840); format: functional
T1 sequence (Q9GZV3 whole entry): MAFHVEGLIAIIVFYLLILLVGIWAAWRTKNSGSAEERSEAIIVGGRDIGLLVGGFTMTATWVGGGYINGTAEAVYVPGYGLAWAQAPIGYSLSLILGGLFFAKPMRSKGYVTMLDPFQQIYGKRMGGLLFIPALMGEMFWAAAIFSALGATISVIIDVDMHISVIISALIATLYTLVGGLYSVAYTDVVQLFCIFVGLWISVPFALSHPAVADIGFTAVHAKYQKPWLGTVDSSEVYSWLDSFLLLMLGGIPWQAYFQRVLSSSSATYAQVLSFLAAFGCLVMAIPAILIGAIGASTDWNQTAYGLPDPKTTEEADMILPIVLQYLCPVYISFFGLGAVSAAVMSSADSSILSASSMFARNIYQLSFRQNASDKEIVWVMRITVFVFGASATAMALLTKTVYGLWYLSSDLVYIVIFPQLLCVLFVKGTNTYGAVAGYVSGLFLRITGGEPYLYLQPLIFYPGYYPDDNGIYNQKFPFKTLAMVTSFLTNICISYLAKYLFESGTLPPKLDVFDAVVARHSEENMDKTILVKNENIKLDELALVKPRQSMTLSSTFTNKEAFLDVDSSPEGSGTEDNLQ

Protein skinhead-1 = molecular target: T2, Protein skinhead-1 (Caenorhabditis elegans, UniProt P34707); format: functional
T2 sequence (P34707 whole entry): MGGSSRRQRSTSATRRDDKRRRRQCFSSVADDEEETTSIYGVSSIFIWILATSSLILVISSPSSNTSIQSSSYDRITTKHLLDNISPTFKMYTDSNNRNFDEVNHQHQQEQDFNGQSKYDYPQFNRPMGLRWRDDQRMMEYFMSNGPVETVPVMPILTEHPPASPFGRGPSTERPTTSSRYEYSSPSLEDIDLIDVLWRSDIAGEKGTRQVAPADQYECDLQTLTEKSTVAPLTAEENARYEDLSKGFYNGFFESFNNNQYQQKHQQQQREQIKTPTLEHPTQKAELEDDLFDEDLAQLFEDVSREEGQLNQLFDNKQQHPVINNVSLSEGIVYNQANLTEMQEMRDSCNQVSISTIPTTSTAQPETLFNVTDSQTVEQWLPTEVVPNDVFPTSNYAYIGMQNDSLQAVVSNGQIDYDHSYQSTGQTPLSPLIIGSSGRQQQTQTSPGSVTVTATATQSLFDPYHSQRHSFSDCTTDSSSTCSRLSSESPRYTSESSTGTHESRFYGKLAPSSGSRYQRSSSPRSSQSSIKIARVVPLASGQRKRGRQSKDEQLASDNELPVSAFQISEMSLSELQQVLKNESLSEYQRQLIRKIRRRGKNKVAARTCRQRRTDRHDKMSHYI

[2] = NIH-3T3 fibroblast cytotoxicity, dose response, cytotoxicity control, cell-based, fluorescence, Alamar Blue, secondary assay (AID 2327); format: functional;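 also: NIH-3T3 mouse fibroblasts cultured with fluconazole at 8 µg/mL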
[3] = fluconazole-exposed Candida albicans growth modulators – fluorescence, retest, confirmation (AID 2467); format: functional, cell-based
cells [4] = format: functional
[5] = viability loss in HeLa cells – cytotoxicity control for MgcRacGAP inhibitor project, dose response (AID 624300); format: functional
[6] = molecular target: T3, Rac GTPase-activating protein 1 (Homo sapiens, UniProt Q9H0H5); assay: blockers of MgcRacGAP-driven Rac1 GTP hydrolysis – biochemical, ADP Hunter fluorescence, primary and confirmatory, confirmation (AID 624330); format: functional
T3 sequence (Q9H0H5 whole entry): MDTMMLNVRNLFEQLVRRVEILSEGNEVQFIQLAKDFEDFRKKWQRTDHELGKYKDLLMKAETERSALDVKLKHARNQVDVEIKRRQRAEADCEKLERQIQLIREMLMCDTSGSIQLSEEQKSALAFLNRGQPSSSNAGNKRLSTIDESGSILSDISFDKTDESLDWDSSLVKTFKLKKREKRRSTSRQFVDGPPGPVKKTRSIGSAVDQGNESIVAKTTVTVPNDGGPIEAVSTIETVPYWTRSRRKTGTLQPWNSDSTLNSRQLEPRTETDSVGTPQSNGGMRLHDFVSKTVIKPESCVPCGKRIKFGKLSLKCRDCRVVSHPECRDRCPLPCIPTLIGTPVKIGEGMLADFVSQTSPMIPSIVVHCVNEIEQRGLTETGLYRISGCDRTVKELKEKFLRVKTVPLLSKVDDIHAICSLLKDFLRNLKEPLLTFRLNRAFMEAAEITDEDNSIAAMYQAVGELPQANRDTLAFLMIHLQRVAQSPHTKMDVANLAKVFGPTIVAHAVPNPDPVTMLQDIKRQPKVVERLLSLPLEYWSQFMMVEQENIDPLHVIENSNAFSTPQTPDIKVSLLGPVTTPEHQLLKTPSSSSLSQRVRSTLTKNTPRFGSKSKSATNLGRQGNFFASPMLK

Vero [7] = assay: cells; format: functional, cell-based; settings: Chlorocebus sabaeus
[8] = Fluorescence-based cell-based high throughput dose response assay for inhibitors of the interaction of nucleotide-binding oligomerization domain containing 2 (NOD2) and the receptor-interacting serine-threonine kinase 2 (RIPK2).; format: functional; settings: Homo sapiens
INS1 = assay: INS-1E survival protection against cytokine death – cell-based, luminescence, retest, dose response (AID 449756); format: functional; settings: Rattus norvegicus;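 also: cell death triggered by IL-1 beta plus TNF-alpha plus IFN-gamma mixture; protective hits raise ATP signal compared with cytokine alone wells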
[9] = reduction of Shn3 3'UTR-driven luciferase in osteoblasts – cell-based, Clone20 osteoblasts, firefly luciferase, cherry-picked, dose response (AID 624132); format: functional;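 also: firefly luciferase luminescence from reporter carrying the Shn3 3'UTR in osteoblasts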
[10] = loss of viability in HepG2 cells – cell-based, CellTiter-Glo, cherry-picked, cytotoxicity control for Shn3 inhibitor project, dose response (AID 624134); format: functional
[11] = non-specific 3'UTR reporter inhibition in Clone20-Shn3RL – cell-based, Renilla luciferase, cherry-picked, counter-screen for Shn3 inhibitor project, dose response (AID 624133); format: functional
[12] = Luminescence Cell-Based Dose Confirmation HTS to Identify Activators of 5'UTR Stem-Loop Driven Alpha-Synuclein mRNA Translation in H4 Neuroglioblastoma Cells. [Related pubchem assays: 1829 (Project Summary), 1814 (Primary HTS)]; format: functional
[13] = Luminescence Cell-Based Dose Response HTS to Identify Activators of Luciferase Translation or Activity in H4 […] Cells. [Related pubchem assays: 1829 (Project Summary), 1814 (Primary HTS)]; format: functional
BJ [14] = assay: BJ-TERT fibroblast viability loss – cell-based, RAS-independent, luminescence, dose response (AID 1933); format: functional; settings: Homo sapiens
cells [15] = format: functional, cell-based
H4 = assay: Luminescence Cell-Based Dose Response HTS to Identify Activators of 5'UTR Stem-Loop Driven Prion Protein mRNA Translation in H4 Neuroglioblastoma Cells. [Related pubchem assays: 1829 (Project Summary), 1814 (Primary HTS)]; format: functional; settings: Homo sapiens
BJ [16] = assay: cells; format: functional, cell-based; settings: Homo sapiens
cells [17] = format: functional, cell-based; remark: listed apart in the source
BJ [18] = assay: BJ-TERT-LT-ST fibroblast viability loss – cell-based, RAS-independent, luminescence, dose response (AID 1935); format: functional; settings: Homo sapiens;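 also: BJ fibroblasts immortalized with TERT plus LT and ST oncogenes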
[19] = DRD fibroblast viability loss – cell-based, non-viral oncogenic, luminescence, dose response (AID 1934); format: functional; settings: Homo sapiens
[20] = molecular target: T4, Microphthalmia-associated transcription factor (Homo sapiens, UniProt O75030); assay: reducers of TRPM1 reporter luminescence, concentration series – cell-based, SK-MEL-5, cherry-picked, set 3, MITF inhibitor project, dose response (AID 493073); format: functional;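 also: SK-MEL-5 melanoma cells with luciferase driven by the MITF target TRPM1 promoter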
T4 sequence (O75030 whole entry): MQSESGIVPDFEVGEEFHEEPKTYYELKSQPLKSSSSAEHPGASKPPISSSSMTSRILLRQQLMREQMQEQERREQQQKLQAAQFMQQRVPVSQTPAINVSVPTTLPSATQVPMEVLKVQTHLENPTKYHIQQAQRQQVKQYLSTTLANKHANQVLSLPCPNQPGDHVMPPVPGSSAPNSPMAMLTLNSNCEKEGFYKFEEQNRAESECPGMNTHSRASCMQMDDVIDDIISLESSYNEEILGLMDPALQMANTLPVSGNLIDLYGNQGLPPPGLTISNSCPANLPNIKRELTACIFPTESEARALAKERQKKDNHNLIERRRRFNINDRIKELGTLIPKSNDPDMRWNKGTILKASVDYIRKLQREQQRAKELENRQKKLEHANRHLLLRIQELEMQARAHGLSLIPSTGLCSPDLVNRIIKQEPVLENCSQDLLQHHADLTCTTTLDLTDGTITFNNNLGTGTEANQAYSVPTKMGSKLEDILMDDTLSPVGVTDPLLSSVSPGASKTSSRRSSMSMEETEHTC

[21] = viability of uninfected HEp-2 cells – cell-based, HTS, cytotoxicity control for RSV inhibitor project, dose response (AID 2410); format: functional; settings: human respiratory syncytial virus
cells [22] = assay: cells
[23] = molecular target: SWI/SNF-related matrix-associated actin-dependent regulator of chromatin subfamily A member 2 (Homo sapiens, UniProt P51531); assay: Luminescence-based cell-based high throughput dose response assay to identify activators of the function of SWI/SNF related, matrix associated, actin dependent regulator of chromatin, subfamily a, member 2 (SMARCA2, BRM).; format: functional
[24] = Counterscreen for activators of the function of SWI/SNF related, matrix associated, actin dependent regulator of chromatin, subfamily a, member 2 (SMARCA2, BRM): Luminescence-based cell-based high throughput dose response assay to identify non-selective compounds using the VP16 reporter assay.; format: functional
[25] = molecular target: Neurotensin receptor type 1 (Homo sapiens, UniProt P30989); format: functional;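 also: Image-based confirmatory dose-response assay measuring agonist activity at NTR1; NTR1-expressing U2OS osteosarcoma cells imaged for beta-arrestin GFP spot formation; agonist potency where compounds increase beta-arrestin recruitment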
[26] = molecular target: Heat shock protein HSP 90-alpha (Homo sapiens, UniProt P07900); format: functional, organism-based
[27] = molecular target: T5, Low molecular weight phosphotyrosine protein phosphatase (Homo sapiens, UniProt P24666); format: functional; settings: read-out: IC50_Mean
T5 sequence (P24666 whole entry): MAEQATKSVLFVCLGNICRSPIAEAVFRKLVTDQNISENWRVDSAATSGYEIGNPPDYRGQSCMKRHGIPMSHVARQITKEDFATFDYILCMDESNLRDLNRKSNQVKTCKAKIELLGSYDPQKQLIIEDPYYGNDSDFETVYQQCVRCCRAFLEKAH

[28] = molecular target: T5, Low molecular weight phosphotyrosine protein phosphatase; format: functional; settings: read-out: IC50_Mean; remark: listed apart in the source
HEK293 = assay: EBV LMP1 TES2 canonical NF-kB signalling blockers – cell-based, HEK293, luciferase, cherry-pick, dose response (AID 588343); format: functional; settings: Homo sapiens
Vero [29] = assay: cells; format: functional; settings: Chlorocebus sabaeus

Protein Wnt-3a, sequence (P27467 whole entry): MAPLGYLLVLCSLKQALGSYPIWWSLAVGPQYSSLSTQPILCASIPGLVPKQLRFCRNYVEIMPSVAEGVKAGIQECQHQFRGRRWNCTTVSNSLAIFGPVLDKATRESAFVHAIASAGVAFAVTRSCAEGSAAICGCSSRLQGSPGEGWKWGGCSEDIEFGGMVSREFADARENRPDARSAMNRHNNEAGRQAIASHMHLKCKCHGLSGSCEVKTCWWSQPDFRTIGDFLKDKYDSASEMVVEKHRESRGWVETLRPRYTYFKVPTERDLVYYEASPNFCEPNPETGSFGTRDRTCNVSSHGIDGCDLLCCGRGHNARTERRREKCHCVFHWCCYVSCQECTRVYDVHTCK
SWI/SNF-related matrix-associated actin-dependent regulator of chromatin subfamily A member 2, sequence (P51531 whole entry): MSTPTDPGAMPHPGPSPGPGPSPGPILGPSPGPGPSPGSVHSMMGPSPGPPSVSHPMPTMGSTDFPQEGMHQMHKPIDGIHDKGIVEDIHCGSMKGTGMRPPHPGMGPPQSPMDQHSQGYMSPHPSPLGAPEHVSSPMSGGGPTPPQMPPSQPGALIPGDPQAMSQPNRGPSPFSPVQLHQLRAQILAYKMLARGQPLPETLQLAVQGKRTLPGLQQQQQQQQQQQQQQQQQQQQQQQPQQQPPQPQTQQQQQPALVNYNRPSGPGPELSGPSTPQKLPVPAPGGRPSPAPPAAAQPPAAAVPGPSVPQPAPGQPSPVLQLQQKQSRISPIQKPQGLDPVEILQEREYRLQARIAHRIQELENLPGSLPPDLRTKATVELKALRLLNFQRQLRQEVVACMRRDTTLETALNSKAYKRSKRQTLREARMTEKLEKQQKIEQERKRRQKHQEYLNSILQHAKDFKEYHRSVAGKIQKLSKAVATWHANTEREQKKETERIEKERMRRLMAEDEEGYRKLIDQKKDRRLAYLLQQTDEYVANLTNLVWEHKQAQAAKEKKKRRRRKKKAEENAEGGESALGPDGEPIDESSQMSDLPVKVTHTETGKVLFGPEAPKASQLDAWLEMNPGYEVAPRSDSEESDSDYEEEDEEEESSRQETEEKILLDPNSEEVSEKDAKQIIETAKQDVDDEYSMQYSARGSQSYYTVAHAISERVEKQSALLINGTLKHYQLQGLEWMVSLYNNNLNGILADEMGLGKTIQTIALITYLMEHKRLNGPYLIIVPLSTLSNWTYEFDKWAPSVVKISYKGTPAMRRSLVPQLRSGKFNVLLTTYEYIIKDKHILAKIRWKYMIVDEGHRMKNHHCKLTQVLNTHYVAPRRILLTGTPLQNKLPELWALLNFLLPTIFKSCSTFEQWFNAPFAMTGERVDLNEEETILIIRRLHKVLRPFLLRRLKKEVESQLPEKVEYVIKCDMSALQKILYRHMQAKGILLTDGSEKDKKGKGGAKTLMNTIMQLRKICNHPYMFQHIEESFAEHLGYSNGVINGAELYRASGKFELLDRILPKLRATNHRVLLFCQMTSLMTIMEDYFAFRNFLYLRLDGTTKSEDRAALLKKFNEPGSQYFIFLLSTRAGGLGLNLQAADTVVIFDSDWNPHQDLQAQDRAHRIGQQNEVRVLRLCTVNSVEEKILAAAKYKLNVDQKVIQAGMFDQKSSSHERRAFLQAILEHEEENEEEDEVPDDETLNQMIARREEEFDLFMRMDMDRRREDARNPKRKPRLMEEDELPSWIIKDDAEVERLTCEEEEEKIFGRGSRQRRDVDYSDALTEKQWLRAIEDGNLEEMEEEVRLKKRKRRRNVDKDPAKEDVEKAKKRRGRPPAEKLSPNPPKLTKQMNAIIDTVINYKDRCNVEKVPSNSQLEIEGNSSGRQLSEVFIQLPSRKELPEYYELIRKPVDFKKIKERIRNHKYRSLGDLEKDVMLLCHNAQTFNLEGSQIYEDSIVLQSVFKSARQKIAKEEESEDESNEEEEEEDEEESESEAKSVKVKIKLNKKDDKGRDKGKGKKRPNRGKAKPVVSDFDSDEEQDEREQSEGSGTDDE
Neurotensin receptor type 1, sequence (P30989 whole entry): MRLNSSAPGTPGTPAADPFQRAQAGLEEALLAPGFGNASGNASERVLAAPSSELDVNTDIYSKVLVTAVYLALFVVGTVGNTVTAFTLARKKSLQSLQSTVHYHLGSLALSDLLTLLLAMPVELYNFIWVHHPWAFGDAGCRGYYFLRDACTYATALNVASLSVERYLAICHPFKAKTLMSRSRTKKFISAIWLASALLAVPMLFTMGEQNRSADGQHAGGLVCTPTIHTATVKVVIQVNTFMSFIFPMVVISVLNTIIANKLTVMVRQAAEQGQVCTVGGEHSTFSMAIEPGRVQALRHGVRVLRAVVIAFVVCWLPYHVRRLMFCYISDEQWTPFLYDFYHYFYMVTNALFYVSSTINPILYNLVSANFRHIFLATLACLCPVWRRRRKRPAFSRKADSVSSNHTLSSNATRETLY

CC1Sc2n(c3ccccc3[n+]2C)N=C1c1ccccc1 (stereo not given)
IC50 (Protein Wnt-3a): 3.6 µM (active)

O=C(NNC(=S)Nc1ccc(Cl)cc1)c1ccccc1OC(F)F
IC50 [1]: 13.8 µM (active)

CN1/C(=C\C(=O)COC(=O)CNC(=O)c2ccc3ccccc3c2)C(C)(C)c2ccccc21
IC50 (Protein skinhead-1): > 100 µM (inactive)
IC50 (Protein Wnt-3a): 50 µM (inactive)

O=[N+]([O-])c1ccc(Nc2ccccc2)c2nonc12
EC50 [2]: > 150 µM (inconclusive)
EC50 [3]: < 0.03 µM (active)
IC50 (cells [4]): 7.68 µM (active)
IC50 [1]: 11.8 µM (active)
IC50 (Protein skinhead-1): 41.5 µM (active)

Cc1cc(C)c(OCCCCNCc2ccccc2)c(Cl)c1
CC50 [5]: 69.7 µM (active)
IC50 [6]: 91.9 µM (active)

O=C(CCCN1C(=O)/C(=C\c2ccco2)SC1=S)Nc1ccc2ccccc2c1
IC50 (Vero [7]): 8.01 µM (active)

Cc1ccc(C(=O)C[n+]2cc(Br)cc(Br)c2)cc1
IC50 [1]: 11.4 µM (active)

O=C(NCCN1C(=O)S/C(=C\c2ccc(Cl)c([N+](=O)[O-])c2)C1=O)C1=COCCO1
IC50 [8]: 1.62 µM (active)

COc1ccc(NS(=O)(=O)c2ccc(N3CCCCC3)c(N)c2)cc1
AC50 (INS1): 3.22 µM (active)
AC50 [9]: 0.824 µM (active)
AC50 [10]: 4.01 µM (active)
AC50 [11]: 1.51 µM (active)
IC50 (Protein Wnt-3a): 0.102 µM (active)

Cc1ccc(NC(=O)NCc2ccc3[nH]c(C)cc3c2)cc1
IC50 (Vero [7]): > 25 µM (active)

COc1cc(/C=C/C(=O)c2ccc3c(c2)OCCO3)cc(Br)c1OCC(=O)N(C)C
EC50 [12]: 5.83 µM (active)
EC50 [13]: 14.4 µM (active)
EC50 (BJ [14]): 4.75 µM (active)
EC50 (cells [15]): > 350 µM (not active)
EC50 (H4): > 120 µM (not active)
EC50 (BJ [16]): 3.4 µM (inconclusive)
EC50 (cells [17]): > 350 µM (not active)
EC50 (BJ [18]): 5.55 µM (inconclusive)
EC50 [19]: 5.43 µM (inconclusive)
AC50 [20]: 6.17 µM (active)
AC50 [9]: 2.63 µM (active)
AC50 [10]: 14.2 µM (active)
AC50 [11]: 8.52 µM (active)

Cc1cccc(C(=O)Nc2ccccc2SCC2CSc3nc4ccccc4c(=O)n32)c1 (stereo not given)
CC50 [21]: 43 µM (active)
IC50 (Vero [7]): > 25 µM (active)
IC50 (cells [22]): 19.9 µM (active)

COc1ccccc1/C=C/C(=O)OCC(=O)Nc1ccc(Cl)cn1
EC50 [23]: > 91.1 µM (inactive)
EC50 [24]: > 91.1 µM (inactive)

COc1ccc(C(C[N+](=O)[O-])n2nc(C)cc2C)cc1 (stereo not given)
EC50 [25]: 10.1 µM (active)
AC50 [26]: 1.94 µM (active)
IC50 [8]: 1.63 µM (active)

Cc1c(-c2ccccc2)c(-c2ccc(OCCN(C)C)cc2)n2ccccc12
IC50 [27]: 31.3 µM (inactive)
IC50 [28]: 4.82 µM (active)

CC1CC(C)C(=O)C(C(CC2CC(=O)NC(=O)C2)OC(=O)CC(=O)c2ccccc2)C1 (stereo not given)
AC50 (HEK293): 42.3 µM (active)
IC50 (Vero [7]): > 25 µM (active)
CC50 (Vero [29]): 9.24 µM (active)

CNc1nc(NC)c2c[nH]nc2n1
IC50 [27]: 33 µM (inactive)
IC50 [28]: 9.16 µM (active)

O=C(CNCc1c(F)cccc1F)N1CCC2(CC1)OCCO2
EC50 [23]: > 91.3 µM (inactive)
EC50 [24]: > 91.3 µM (inactive)
